Here are results for two compounds from patent US20210267872A1, “Delivery Of Cosmetic Agents, Compositions And Use Thereof” (ELC Management LLC, priority 2020, published 2021).

One data set has as its system MatTek 300 skin. The experiment in a line: Skin penetration study (Franz Cell) using MatTek skin. Format: in vitro ADME. The conditions noted are these: for enhancement of penetration of AA2G over control: p value greater than 0.05. The procedure:
In a 6-well plate, MatTek 300 skin (a skin modeling constructed by live cells, obtained from MatTek) was placed in well with 2.00 mL of incubation medium (also provide by MatTek). To the top of the skin, 400 ul of the sample was loaded. The skin was then incubated at 37° C. At 3 hours and 6 hours, the incubation medium was collected, and another 2.00 mL of medium was added into the well. The skin was then incubated until 24 hours. Finally, the medium was collected at 24 hours' time point. The collected mediums were filtered through a 0.45 um PTFE syringe filter into HPLC vials. The samples were then submitted to the UPLC study.
Waters ACQUITY H UPLC was used to analyze the collected samples from the penetration study (Franz Cell study).

A further data set in a line: Skin PAMPA study. Format: in vitro ADME. The procedure: In vitro delivery of active ingredients in a formulation was evaluated using a skin PAMPA study. Active ingredients and pulverized thin fibers were added to the formulation and tested for permeation using PAMPA SC membrane for polar compounds. The following samples were prepared. Formulations are provided in Table 3 in percentages. • Formula 1 as shown in Table 3. • Formula 2: Formula 1 and 1% of microcrystalline cellulose (9 μm). • Formula 3: Formula 1 and the maximum amount of 1% dispersion (cellulose acetate fibers in water). • Formula 4: Formula 1 and 1% of microcrystalline cellulose (9 μm) and the maximum amount of 1% dispersion (cellulose acetate fibers in water).

In the case of `O=C1O[C@H]([C@@H](O)CO)C(O)=C1O[C@H]1O[C@H](CO)[C@@H](O)[C@H](O)[C@H]1O` [AA2G, ascorbic acid 2-glucoside], the “enhancement of penetration of AA2G over control” value stood at 30% with MatTek 300 skin (six hours, formula containing cellulose acetate chopped fibers vs control without fiber) and 33% in the data set on MatTek 300 skin (three hours, formula containing cellulose acetate chopped fibers vs control without fiber). Moreover, the “enhancement of penetration of AA2G over control (difference)” value in the data set with MatTek 300 skin (twenty-four hours, formula containing cellulose acetate chopped fibers vs control without fiber) is given as “less than 10%”. In the data set on MatTek 300 skin (vs formulation without fiber, initial 6 hours after loading), the “delivery/penetration of AA2G into the skin in the presence of cellulose acetate chopped fibers” value was “enhanced”. Besides, in the data set “Skin PAMPA study” (span over all formulas shown), the “permeated amount of AA2G, FIG. 2B” value lay within 0 to 300 μg/cm2.
As for `Cn1c(=O)c2c(ncn2C)n(C)c1=O` [caffeine], in the data set with MatTek 300 skin, the “percentage % penetration of caffeine compared with AA2G” value was “greater than that of AA2G”. Further, the “penetration of caffeine in the presence of cellulose acetate chopped fibers (summary)” value with MatTek 300 skin (PAMPA) is “slightly enhanced”. Also, the “enhancement of penetration of caffeine by addition of chopped fiber” value in the data set on MatTek 300 skin (human, 6 h) is less than 10%. In the data set “Skin PAMPA study” (composition comprising chopped fibers), the “permeation of caffeine in the presence of chopped fibers compared to the control, FIG. 4B” value is “doubling”. Besides, the “permeating amount of caffeine, FIG. 4A” value in “Skin PAMPA study” (six hours, cellulose acetate nanofiber) is listed as “slightly increased”.
